These results are taken from patent US9187474B2, “Raf inhibitor compounds” (Deciphera Pharmaceuticals, LLC, priority 2012, dated 2015).

Where a name gives a salt, the structure may show the parent alone.

The test system of data set [1] is A375res cells.
From the text: (§1) A vemurafenib-resistant cell line is generated by chronic treatment of the human melanoma cell line A375 (ATCC) harboring the B-Raf V600E mutation with increasing concentrations PLX4720.
Data set [2] has as its system A375res cells. Kind of data set: Proliferation assay in vemurafenib-resistant A375res melanoma cells. The following applies: Homo sapiens, 72 h, read-out: absolute IC50 values.
From the text: as §1

What is called IC50 is the midpoint of a concentration-inhibition curve. As to `CNc1cc2nc(C)c(-c3cc(NC(=O)N[C@H]4CC[C@](C)(C#N)CC4)c(F)cc3C)cc2cn1` [Example 25, 1-(trans-4-cyano-4-methylcyclohexyl)-3-(2-fluoro-4-methyl-5-(2-methyl-7-(methylamino)-1,6-naphthyridin-3-yl)phenyl)urea], the “IC50 shift A375 to A375res” value in data set [1] was 0.5-4.9 fold. In data set [2], the IC50 fell in the range of 9 to 504 nM.
On the same counts, the results for `CNc1cc2nc(C)c(-c3cc(NC(=O)N[C@H]4CC[C@@](C)(C#N)CC4)c(F)cc3C)cc2cn1` [Example 26, 1-(cis-4-cyano-4-methylcyclohexyl)-3-(2-fluoro-4-methyl-5-(2-methyl-7-(methylamino)-1,6-naphthyridin-3-yl)phenyl)urea] are 0.5-4.9 fold and 9 to 504 nM.
Regarding `CNc1cc2nc(C)c(-c3cc(NC(=O)NCCC4(C)CC4)c(F)cc3C)cc2cn1` [Example 27, 1-(2-fluoro-4-methyl-5-(2-methyl-7-(methylamino)-1,6-naphthyridin-3-yl)phenyl)-3-(2-(1-methylcyclopropyl)ethyl)urea hydrochloride], the “IC50 shift A375 to A375res” value in data set [1] is reported as 0.5-4.9 fold. The IC50 in data set [2] lay within 9 to 504 nM.
In the case of `CNc1cc2nc(C)c(-c3cc(NC(=O)NCCC4(OC)CC4)c(F)cc3F)cc2cn1` [Example 28, 1-(2,4-difluoro-5-(2-methyl-7-(methylamino)-1,6-naphthyridin-3-yl)phenyl)-3-(2-(1-methoxycyclopropyl)ethyl)urea], in data set [1], the “IC50 shift A375 to A375res” value is 0.5-4.9 fold. In addition, in data set [2], the 50% inhibitory concentration (IC50) was in the range of 9 to 504 nM.
The like results for `CNc1cc2nc(C)c(-c3cc(NC(=O)NCC4CCCCC4)c(F)cc3C)cc2cn1` [Example 29, 1-(cyclohexylmethyl)-3-(2-fluoro-4-methyl-5-(2-methyl-7-(methylamino)-1,6-naphthyridin-3-yl)phenyl)urea hydrochloride] were, in that order, 0.5-4.9 fold and 9 to 504 nM.
On the same counts, the results for `CCOC(C)(C)CCNC(=O)Nc1cc(-c2cc3cnc(NC)cc3nc2C)c(C)cc1F` [Example 30, 1-(3-ethoxy-3-methylbutyl)-3-(2-fluoro-4-methyl-5-(2-methyl-7-(methylamino)-1,6-naphthyridin-3-yl)phenyl)urea hydrochloride] are 0.5-4.9 fold and 9 to 504 nM.
The like results for `CNc1cc2nc(C)c(-c3cc(NC(=O)NCCC4(OC)CC4)c(F)cc3C)cc2cn1` [Example 31, 1-(2-fluoro-4-methyl-5-(2-methyl-7-(methylamino)-1,6-naphthyridin-3-yl)phenyl)-3-(2-(1-methoxycyclopropyl)ethyl)urea hydrochloride] were, in that order, 0.5-4.9 fold and 9 to 504 nM.
For `CNc1cc2ncc(-c3cc(NC(=O)NCCC(C)(C)OC)c(F)cc3C)cc2cn1` [Example 32, 1-(2-fluoro-4-methyl-5-(7-(methylamino)-1,6-naphthyridin-3-yl)phenyl)-3-(3-methoxy-3-methylbutyl)urea], the “IC50 shift A375 to A375res” value in data set [1] was 0.5-4.9 fold. The concentration for half-maximal inhibition (IC50) in data set [2] was in the range of 9 to 504 nM.
For `CNc1cc2nc(C)c(-c3cc(NC(=O)NCCCC(C)(C)OC)c(F)cc3C)cc2cn1` [Example 33, 1-(2-fluoro-4-methyl-5-(2-methyl-7-(methylamino)-1,6-naphthyridin-3-yl)phenyl)-3-(4-methoxy-4-methylpentyl)urea hydrochloride], in data set [1], the “IC50 shift A375 to A375res” value is on record as 0.5-4.9 fold. Moreover, in data set [2], the IC50 is 9 to 504 nM.
As for `Cc1cc(F)c(NC(=O)NCCC(C)(C)C#N)cc1-c1cc2cnc(N)cc2nc1C` [Example 44, 1-(5-(7-amino-2-methyl-1,6-naphthyridin-3-yl)-2-fluoro-4-methylphenyl)-3-(3-cyano-3-methylbutyl)urea], in data set [1], the “IC50 shift A375 to A375res” value is 0.5-4.9 fold. Also, the half-inhibitory concentration (IC50) in data set [2] was in the range of 9 to 504 nM.
The like results for `CNc1cc2nc(C)c(-c3cc(NC(=O)NC(C)CC(C)(C)C)c(F)cc3C)cc2cn1` (stereo not shown) [Example 59, 1-(4,4-dimethylpentan-2-yl)-3-(2-fluoro-4-methyl-5-(2-methyl-7-(methylamino)-1,6-naphthyridin-3-yl)phenyl)urea] were, in that order, 0.5-4.9 fold and 9 to 504 nM.
The like results for `CNc1cc2nc(C)c(-c3cc(NC(=O)NCC(O)C(C)C)c(F)cc3C)cc2cn1` (stereo not shown) [Example 60, 1-(2-fluoro-4-methyl-5-(2-methyl-7-(methylamino)-1,6-naphthyridin-3-yl)phenyl)-3-(2-hydroxy-3-methylbutyl)urea] were, in that order, 0.5-4.9 fold and 9 to 504 nM.
In the case of `CNc1cc2nc(C)c(-c3cc(NC(=O)NCC(O)C(F)(F)F)c(F)cc3C)cc2cn1` (stereo not shown) [Example 61, 1-(2-fluoro-4-methyl-5-(2-methyl-7-(methylamino)-1,6-naphthyridin-3-yl)phenyl)-3-(3,3,3-trifluoro-2-hydroxypropyl)urea], the “IC50 shift A375 to A375res” value in data set [1] is 0.5-4.9 fold. The half-maximal inhibitory concentration (IC50) in data set [2] lay within 9 to 504 nM.
`Cc1cc(F)c(NC(=O)NCCC(C)(C)F)cc1-c1cc2cnc(NCCO)cc2nc1C` [Example 65, 1-(3-fluoro-3-methylbutyl)-3-(2-fluoro-5-(7-((2-hydroxyethyl)amino)-2-methyl-1,6-naphthyridin-3-yl)-4-methylphenyl)urea]: the “IC50 shift A375 to A375res” value in data set [1] was 0.5-4.9 fold. Also, the IC50 in data set [2] is 9 to 504 nM.
As for `CNc1cc2nc(C)c(-c3cc(NC(=O)N[C@H](C)CC(C)(C)C)c(F)cc3C)cc2cn1` [Example 72, (R)-1-(4,4-dimethylpentan-2-yl)-3-(2-fluoro-4-methyl-5-(2-methyl-7-(methylamino)-1,6-naphthyridin-3-yl)phenyl)urea], the “IC50 shift A375 to A375res” value in data set [1] is listed as 0.5-4.9 fold. The IC50 in data set [2] is 9 to 504 nM.
On the same counts, the results for `COC(C)(C)CCNC(=O)Nc1cc(-c2cc3cnc(N)cc3nc2C)c(C)cc1F` [Example 80, 1-(5-(7-amino-2-methyl-1,6-naphthyridin-3-yl)-2-fluoro-4-methylphenyl)-3-(3-methoxy-3-methylbutyl)urea hydrochloride] are 0.5-4.9 fold and 9 to 504 nM.
Take `Cc1cc(F)c(NC(=O)NCCC(C)(C)F)cc1-c1cnc2cc(N)ncc2c1` [Example 81, 1-(5-(7-amino-1,6-naphthyridin-3-yl)-2-fluoro-4-methylphenyl)-3-(3-fluoro-3-methylbutyl)urea]: in data set [1], the “IC50 shift A375 to A375res” value is reported as 0.5-4.9 fold. Also, the IC50 in data set [2] lay in the range of 9 to 504 nM.
Regarding `Cc1cc(F)c(NC(=O)NC2CCCCCC2)cc1-c1cc2cnc(N)cc2nc1C` [Example 82, 1-(5-(7-amino-2-methyl-1,6-naphthyridin-3-yl)-2-fluoro-4-methylphenyl)-3-cycloheptylurea], the “IC50 shift A375 to A375res” value in data set [1] was 0.5-4.9 fold. The IC50 in data set [2] was in the range of 9 to 504 nM.
On the same counts, the results for `CNc1cc2nc(C)c(-c3cc(NC(=O)NCCCC(F)(F)F)c(F)cc3C)cc2cn1` [Example 91, hydrochloride] are 0.5-4.9 fold and 9 to 504 nM.
Take `CNc1cc2nc(C)c(-c3cc(NC(=O)NCCC4CCC4)c(F)cc3C)cc2cn1` [Example 97, 1-(2-cyclobutylethyl)-3-(2-fluoro-4-methyl-5-(2-methyl-7-(methylamino)-1,6-naphthyridin-3-yl)phenyl)urea hydrochloride]: in data set [1], the “IC50 shift A375 to A375res” value is listed as 0.5-4.9 fold. Further, in data set [2], the half-inhibitory concentration (IC50) fell in the range of 9 to 504 nM.
